Reference: patent US10836732B2, “Compounds for combating arthropods” (priority 2013, dated 2020)

How the values were obtained:
Type in all cases: in vivo
Amblyomma hebraeum = experiment: Amblyomma hebaraeum - test (tick nymphs, immersion); details: 100 ppm, tick nymphs immersed one minute, after 42 days
Method: (§1) Solvent: dimethyl sulphoxide
(§2) To produce an appropriate active ingredient formulation, 10 mg of active ingredient are mixed with 0.5 ml of dimethyl sulphoxide, and the concentrate is diluted with water to the desired concentration.
Tick nymphs (Amblyomma hebraeum) are placed into perforated plastic beakers and immersed in the desired concentration for one minute. The ticks are transferred on filter paper into a Petri dish and stored in a climate-controlled cabinet.
After 42 days, the kill in % is determined 100% means that all of the ticks have been killed; 0% means that none of the ticks have been killed.

Tetranychus urticae = Tetranychus urticae - spray test, OP-resistant; details: 100 g/ha, bean leaf discs, after 6 days
Method: Solvent: 78.0 parts by weight of acetone
• 1.5 parts by weight of dimethylformamide Emulsifier: alkylaryl polyglycol ether
To produce an appropriate active ingredient formulation, 1 part by weight of active ingredient is dissolved using the specified parts by weight of solvent and made up with water containing an emulsifier concentration of 1000 ppm until the desired concentration is attained. To produce further test concentrations, the preparation is diluted with emulsifier-containing water.
Discs of bean leaves (Phaseolus vulgaris) infested by all stages of the greenhouse red spider mite (Tetranychus urticae) are sprayed with an active ingredient formulation of the desired concentration.
After 6 days, efficacy in % is determined 100% means that all the spider mites have been killed; 0% means that none of the spider mites have been killed.

Ctenocephalides felis [1] = experiment: Ctenocephalides felis - in vitro contact tests with fleas (CTECFE); details: 1 μg/cm^2, adult fleas, after 48 h
Method: (§3) For the coating of the test tubes, 9 mg of active ingredient are first dissolved in 1 ml of acetone p.a. and then diluted to the desired concentration with acetone p.a. 250 μl of the solution are distributed homogeneously on the inner walls and base of a test tube (25 ml crimp top vial (Fisher Scientific, Order No. 320 55 60) by turning and rocking on a “Rock ‘n’ Roller” (Model L202, Labinco; rocking rotation at 30 rpm in a fume hood for 2 h). With 900 ppm active ingredient solution and internal surface area 44.7 cm^2, given homogeneous distribution, an area-based dose of 5 μg/cm^2 is achieved.
Preparation examples for the inventive halogen-substituted compounds of the formula (I) are tested for their contact efficiency with ectoparasitic insects (cat fleas here). For this purpose, crimp top vials are coated with 250 μl of an acetone solution of the active ingredient as described above. After the solvent has evaporated off, the tubes are populated with 5-10 fleas (adult Ctenocephalides felis), sealed with a perforated plastic lid and incubated in a horizontal position at room temperature and ambient humidity. After 48 h, efficacy (knockdown and mortality) and mortality are determined To this end, the test tubes are stood upright and the fleas are knocked to the base of the tube. […]

Boophilus microplus = Boophilus microplus - injection test (BBOMI Inj); details: 4 μg/animal, injected into engorged adult female cattle ticks, after 7 days
Method: as §1
To produce an appropriate active ingredient formulation, 10 mg of active ingredient are mixed with 0.5 ml of solvent and the concentrate is diluted with solvent to the desired concentration.
1 μl of the active ingredient solution is injected into the abdomen of 5 engorged adult female cattle ticks (Boophilus microplus). The animals are transferred into dishes and kept in a climate-controlled room.
Efficacy is assessed after 7 days by laying of fertile eggs. Eggs which are not visibly fertile are stored in a climate-controlled cabinet until the larvae hatch after about 42 days. An efficacy of 100% means that none of the ticks has laid any fertile eggs; 0% means that all the eggs are fertile.

Ctenocephalides felis [2] = experiment: Ctenocephalides felis - oral test (CTECFE); details: 20 ppm in citrated cattle blood, adult cat fleas, after 2 days
Method: as §1
(§4) For the purpose of producing an appropriate active ingredient formulation, 10 mg of active ingredient are mixed with 0.5 ml of dimethyl sulphoxide. Dilution with citrated cattle blood gives the desired concentration.
(§5) About 20 unfed adult cat fleas (Ctenocephalides felis) are placed into a chamber which is closed at the top and bottom with gauze. A metal cylinder whose bottom end is closed with parafilm is placed onto the chamber. The cylinder contains the blood/active ingredient preparation, which can be imbibed by the fleas through the parafilm membrane.
(§6) After 2 days, the kill in % is determined 100% means that all of the fleas have been killed; 0% means that none of the fleas have been killed.

Rhipicephalus sanguineus [3] = experiment: Rhipicephalus sanguineus - in vitro contact tests with brown dog ticks (RHIPSA); details: 1 μg/cm^2, adult ticks, after 48 h
Method: as §3
Preparation examples for the inventive halogen-substituted compounds of the formula (I) are tested for their contact efficiency with ectoparasitic arachnids (brown dog ticks here). For this purpose, crimp top vials are coated with 250 μl of an acetone solution of the active ingredient as described above. […] After 48 h, efficacy (knockdown and mortality) and mortality are determined To this end, the ticks are knocked to the floor of the tube and incubated on a hotplate at 45-50° C. for not more than 5 min Ticks which remain motionless on the floor or move in such an uncoordinated manner that they are unable to deliberately avoid the heat by climbing upwards are considered to be dead or knocked down (moribund).

Lucilia cuprina = Lucilia cuprina - test; details: 100 ppm, L1 larvae, after 2 days
Method: as §1, §2
About 20 L1 larvae of the Australian sheep blowfly (Lucilia cuprina) are transferred into a test vessel containing minced horsemeat and the active ingredient preparation of the desired concentration.
After 2 days, the kill in % is determined 100% means that all the larvae have been killed; 0% means that none of the larvae have been killed.

Ctenocephalides felis [4] = experiment: Ctenocephalides felis - oral test; details: 100 ppm in citrated cattle blood, adult cat fleas, after 2 days
Method: as §1, §4, §5, §6

Rhipicephalus sanguineus [5] = experiment: Rhipicephalus sanguineus - in vitro contact tests with adult brown dog ticks; details: 5 μg/cm^2, adult dog ticks, after 48 h
Method: For the coating of the test tubes, 9 mg of active ingredient are first dissolved in 1 ml of acetone p.a. and then diluted to the desired concentration with acetone p.a. 250 μl of the solution are distributed homogeneously on the inner walls and base of a 25 ml test tube by turning and rocking on an orbital shaker (rocking rotation at 30 rpm for 2 h). With 900 ppm active ingredient solution and internal surface 44.7 cm^2, given homogeneous distribution, an area-based dose of 5 μg/cm^2 is achieved.
After the solvent has evaporated off, the tubes are populated with 5-10 adult dog ticks (Rhipicephalus sanguineus), sealed with a perforated plastic lid and incubated in a horizontal position in the dark at room temperature and ambient humidity. After 48 h, efficacy is determined To this end, the ticks are knocked to the floor of the tube and incubated on a hotplate at 45-50° C. for not more than 5 min Ticks which remain motionless on the floor or move in such an uncoordinated manner that they are unable to deliberately avoid the heat by climbing upwards are considered to be dead or moribund.
An efficacy of 100% means that all the ticks were dead or moribund. 0% efficacy means that none of the ticks had been harmed.

Cc1cc(C(F)(C(F)(F)F)C(F)(F)F)cc(C)c1-c1cn(-c2ccc(Cl)c(C(=O)NC3CC3)c2)nn1 [I-T48-1, 2-chloro-N-cyclopropyl-5-[4-[2,6-dimethyl-4-[1,2,2,2-tetrafluoro-1-(trifluoromethyl)ethyl]phenyl]triazol-1-yl]benzamide]
100%: efficacy (kill in %) (Amblyomma hebraeum) | efficacy (spider mites killed) (Tetranychus urticae) | efficacy (moribund/knocked down or dead) (Ctenocephalides felis [1]) | efficacy (no fertile eggs laid) (Boophilus microplus) | efficacy (kill in %) (Ctenocephalides felis [2]) | efficacy (dead or knocked down) (Rhipicephalus sanguineus [3]) | efficacy (kill in %) (Lucilia cuprina) | efficacy (kill in %) (Ctenocephalides felis [4]) | efficacy (dead or moribund) (Rhipicephalus sanguineus [5])
